In one test the target is T1, human A3AR (Homo sapiens, UniProt P0DMS8).
T1 sequence (P0DMS8 1-318): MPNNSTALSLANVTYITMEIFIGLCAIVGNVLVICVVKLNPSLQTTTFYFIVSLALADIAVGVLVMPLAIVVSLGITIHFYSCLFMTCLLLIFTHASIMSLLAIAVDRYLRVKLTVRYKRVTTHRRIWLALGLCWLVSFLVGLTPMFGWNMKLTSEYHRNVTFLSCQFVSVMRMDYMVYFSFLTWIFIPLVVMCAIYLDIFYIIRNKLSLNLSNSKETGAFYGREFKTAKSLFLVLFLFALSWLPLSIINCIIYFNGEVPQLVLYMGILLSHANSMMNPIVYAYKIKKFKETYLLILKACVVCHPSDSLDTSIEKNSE
It counts as binding. The note with it: [^125I]MRS5127 0.2 nM, 2 h room temperature, Cheng-Prusoff.

A further test deals with T2, mouse A3AR (Mus musculus, UniProt Q61618).
T2 sequence (Q61618 1-319): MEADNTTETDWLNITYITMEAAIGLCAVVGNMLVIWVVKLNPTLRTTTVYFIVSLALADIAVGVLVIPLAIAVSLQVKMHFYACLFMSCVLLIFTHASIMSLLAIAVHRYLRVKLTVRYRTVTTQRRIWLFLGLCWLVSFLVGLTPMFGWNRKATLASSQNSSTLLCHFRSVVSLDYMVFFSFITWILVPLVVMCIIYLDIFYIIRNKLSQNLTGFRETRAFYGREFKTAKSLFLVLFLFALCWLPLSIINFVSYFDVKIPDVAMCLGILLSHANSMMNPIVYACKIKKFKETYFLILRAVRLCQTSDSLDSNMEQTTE
Briefly: cAMP accumulation assay, HEK 293 cells expressing mouse A3AR. It is filed as cell-based. Particulars: forskolin 10 μM, 15 min, Ro 20-1724 20 μM. For orientation: cAMP levels reflect the balance of adenylyl cyclase and phosphodiesterase activity.

The target of the next test is T3, rabbit A3AR (Oryctolagus cuniculus, UniProt O02667).
T3 sequence (O02667 1-319): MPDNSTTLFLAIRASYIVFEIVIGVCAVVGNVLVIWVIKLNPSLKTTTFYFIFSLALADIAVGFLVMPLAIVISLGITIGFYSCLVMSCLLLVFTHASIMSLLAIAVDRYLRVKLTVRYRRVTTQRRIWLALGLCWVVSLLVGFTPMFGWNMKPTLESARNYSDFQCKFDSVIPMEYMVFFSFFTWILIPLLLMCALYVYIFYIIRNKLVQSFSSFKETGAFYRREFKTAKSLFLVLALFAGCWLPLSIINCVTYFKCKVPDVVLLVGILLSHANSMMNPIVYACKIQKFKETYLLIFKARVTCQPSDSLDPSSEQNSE
Kind of test: cAMP accumulation assay, HEK 293 cells expressing rabbit A3AR. It is filed as cell-based. Particulars: forskolin 10 μM, 15 min, Ro 20-1724 20 μM.

Another test concerns the target T4, dog A3AR (Canis lupus familiaris, UniProt Q28309).
T4 sequence (Q28309 1-314): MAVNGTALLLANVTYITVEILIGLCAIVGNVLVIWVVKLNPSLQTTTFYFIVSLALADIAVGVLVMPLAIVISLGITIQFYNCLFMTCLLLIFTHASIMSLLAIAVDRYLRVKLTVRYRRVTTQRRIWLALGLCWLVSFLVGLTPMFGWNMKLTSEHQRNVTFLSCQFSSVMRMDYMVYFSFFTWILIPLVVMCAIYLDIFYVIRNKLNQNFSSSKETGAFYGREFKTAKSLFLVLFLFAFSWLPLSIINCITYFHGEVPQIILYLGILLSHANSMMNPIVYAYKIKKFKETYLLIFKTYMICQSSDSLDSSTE
Kind of test: cAMP accumulation assay, HEK 293 cells expressing dog A3AR. Particulars: forskolin 10 μM, 15 min, Ro 20-1724 20 μM. It counts as cell-based.

Test [1] concerns hA3AR. Particulars: cited from earlier work.
The next test has as its target hA3. Particulars: read-out: affinity; hA3 ref 25, 26; cited from earlier work.
Test [2] relates to hA3AR. The note with it: CHO cell membranes expressing hA3AR ref 25; cited from earlier work.
The target in a further test is T5, mouse A2BAR (Mus musculus, UniProt Q60614).
T5 sequence (Q60614 1-332): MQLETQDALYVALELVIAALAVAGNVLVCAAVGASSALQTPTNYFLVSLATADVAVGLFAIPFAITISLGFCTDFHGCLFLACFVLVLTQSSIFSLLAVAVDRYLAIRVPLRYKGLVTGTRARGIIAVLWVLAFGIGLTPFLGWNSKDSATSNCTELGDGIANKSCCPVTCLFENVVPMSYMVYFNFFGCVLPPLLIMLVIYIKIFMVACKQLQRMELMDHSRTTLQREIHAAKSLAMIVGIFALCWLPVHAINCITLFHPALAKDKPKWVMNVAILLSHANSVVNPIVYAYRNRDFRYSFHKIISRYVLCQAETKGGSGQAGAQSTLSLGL
Briefly: Competition binding of MRS5127 at mouse A2BAR. Particulars: [^3H]MRS1754 2 nM, HEK 293 membranes.

A further test has as its target mouse A2AAR (Mus musculus, UniProt Q60613). Briefly: Competition binding of MRS5127 at mouse A2AAR. The note with it: [^3H]CGS21680 10 nM, HEK 293 membranes.
For a further test, the target named is T6, mA1AR (Mus musculus, UniProt Q60612).
T6 sequence (Q60612 1-326): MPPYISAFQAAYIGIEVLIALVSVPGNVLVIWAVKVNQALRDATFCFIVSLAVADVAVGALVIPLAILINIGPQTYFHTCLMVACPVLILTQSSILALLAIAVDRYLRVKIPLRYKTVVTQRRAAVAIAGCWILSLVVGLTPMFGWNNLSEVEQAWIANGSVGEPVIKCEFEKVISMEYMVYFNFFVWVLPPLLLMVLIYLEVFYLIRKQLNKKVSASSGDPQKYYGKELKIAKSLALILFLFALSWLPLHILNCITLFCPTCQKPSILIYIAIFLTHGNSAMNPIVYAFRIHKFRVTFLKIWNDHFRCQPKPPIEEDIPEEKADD
Briefly: Competition binding of MRS5127 at mouse A1AR.

Chain of mouse A2AAR (Q60613 whole entry): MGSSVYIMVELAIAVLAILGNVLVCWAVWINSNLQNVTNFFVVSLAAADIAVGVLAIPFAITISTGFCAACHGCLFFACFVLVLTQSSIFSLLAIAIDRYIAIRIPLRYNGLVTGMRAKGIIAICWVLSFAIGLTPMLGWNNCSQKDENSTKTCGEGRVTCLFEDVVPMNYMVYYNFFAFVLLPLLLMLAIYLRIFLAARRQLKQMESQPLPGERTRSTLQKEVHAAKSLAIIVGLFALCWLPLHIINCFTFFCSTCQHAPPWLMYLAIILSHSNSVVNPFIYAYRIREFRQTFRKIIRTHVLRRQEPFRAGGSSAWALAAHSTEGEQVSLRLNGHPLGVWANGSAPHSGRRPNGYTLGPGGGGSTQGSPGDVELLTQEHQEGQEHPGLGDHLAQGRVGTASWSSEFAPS

Turning to `CCCOC(=O)c1c(-c2ccccc2)nc(CC)c(C(=O)SCC)c1CCC` [MRS1523, 5-propyl-2-ethyl-4-propyl-3-(ethylsulfanylcarbonyl)-6-phenylpyridine-5-carboxylate], the Ki at human A3AR was 246 ± 66 nM.

In general, EC50 refers to the midpoint of the concentration-response curve. As for `O[C@@H]1[C@H](O)[C@@H]2C[C@@H]2[C@H]1n1cnc2c(NCc3cccc(I)c3)nc(Cl)nc21` [MRS5127, (1′R,2′R,3′S,4′R,5′S)-4′-[2-chloro-6-(3-iodobenzylamino)-purine]-2′,3′-O-dihydroxybicyclo-[3.1.0]hexane], the half-maximal effective concentration (EC50) was found to be 1.34 ± 0.07 nM at mouse A3AR, 1.53 ± 0.59 nM at rabbit A3AR and 2.79 ± 0.41 nM at dog A3AR. In addition, in the test with hA3AR [1] (cAMP accumulation, human receptors ref 26), the “efficacy in comparison to NECA” value was “roughly half efficacy”. Further, the “efficacy compared to the full agonist NECA” value in the test with hA3AR [1] (cAMP, transfected cells ref 26) was 45%. In addition, the Ki on hA3 is 1.44 ± 0.6 nM; on mA1AR (read-out: affinity (Ki value), [^125I]I-AB-MECA 0.3 nM, HEK 293 membranes) it was 140 ± 26 nM. The “functional character by Schild analysis of [^35S]GTPγS binding” value in the test with hA3AR [2] is reported as “antagonist”. The “binding to mouse A2BAR” value at mouse A2BAR is given as “did not bind”. The “binding to mouse A2AAR” value on mouse A2AAR was “did not bind”. Moreover, at mA1AR (mA1AR versus mA3AR), the “affinity for mA1AR lower compared to the mA3AR” value is listed as ~ 30 fold.
